Source: patent US20030083484A1, “Antisense modulation of short heterodimer partner-1 expression” (priority 2001, published 2003)
Strand notation (5' to 3'): a small letter for the sugar, then the base; units joined by * are phosphorothioate-linked, units joined directly phosphodiester-linked; [ ] holds rarer units or linkages, { } end groups; capitals alone tell only the bases. e = 2'-O-(2-methoxyethyl) (MOE); [5mC] = 5-methylcytosine; d = 2'-deoxy (DNA)

Each substance was assayed on mouse short heterodimer partner-1 mRNA (assay: Inhibition of mouse short heterodimer partner-1 mRNA levels in primary hepatocytes, quantitative real-time PCR). Conditions: averages from two experiments.
Assay type: cell-based
Set-up: concentration or dose not given beside the values
Method: Primary mouse hepatocytes were prepared from CD-1 mice purchased from Charles River Labs (Wilmington, Mass.) and were routinely cultured in Hepatoyte Attachment Media (Gibco) supplemented with 10% Fetal Bovine Serum (Gibco/Life Technologies, Gaithersburg, Md.), 250 nM dexamethasone (Sigma), and 10 nM bovine insulin (Sigma). Cells were seeded into 96-well plates (Falcon-Primaria #3872) at a density of 10000 cells/well for use in RT-PCR analysis.
Cells were harvested 16-24 hours after oligonucleotide treatment.
Vacuum was applied for 15 seconds. […] The elution step was repeated with an additional 60 μL water.
Total RNA is quantified using RiboGreen™ RNA quantification reagent from Molecular Probes.
Probes and primers to mouse short heterodimer partner-1 were designed to hybridize to a mouse short heterodimer partner-1 sequence, using published sequence information (GenBank accession number L75567, incorporated herein as SEQ ID NO: 10).
All cytidine residues are 5-methylcytidines. […] Data are averages from two experiments. If present, “N.D.” indicates “no data”.

Substance | % INHIB (inhibition of mouse short heterodimer partner-1 mRNA levels)
148273 (antisense eT*eG*eG*e[5mC]*eT*dT*d[5mC]*d[5mC]*dT*d[5mC]*dT*dA*dG*d[5mC]*dA*eG*eG*eA*eT*e[5mC]) [compound 148273] | 33%
ISIS 148271: 2′-MOE gapmer, phosphorothioate, AACCCAAGCAGGAAGAGAGG, targets mouse short heterodimer partner-1 RNA (antisense eA*eA*e[5mC]*e[5mC]*e[5mC]*dA*dA*dG*d[5mC]*dA*dG*dG*dA*dA*dG*eA*eG*eA*eG*eG) | at least 50%
ISIS 148272: 2′-MOE gapmer, phosphorothioate, CGGAGCCTCAGCCACCTCGA, targets mouse short heterodimer partner-1 RNA (antisense e[5mC]*eG*eG*eA*eG*d[5mC]*d[5mC]*dT*d[5mC]*dA*dG*d[5mC]*d[5mC]*dA*d[5mC]*e[5mC]*eT*e[5mC]*eG*eA) | at least 50%
ISIS 148284: 2′-MOE gapmer, phosphorothioate, GAGGCACCAGACTCCATTCC, targets mouse short heterodimer partner-1 RNA (antisense eG*eA*eG*eG*e[5mC]*dA*d[5mC]*d[5mC]*dA*dG*dA*d[5mC]*dT*d[5mC]*d[5mC]*eA*eT*eT*e[5mC]*e[5mC]) | at least 50%
ISIS 148287: 2′-MOE gapmer, phosphorothioate, GTTCTGTACAAAGTCAGGAG, targets mouse short heterodimer partner-1 RNA (antisense eG*eT*eT*e[5mC]*eT*dG*dT*dA*d[5mC]*dA*dA*dA*dG*dT*d[5mC]*eA*eG*eG*eA*eG) | at least 50%
ISIS 148286: 2′-MOE gapmer, phosphorothioate, AGTCATCAAGGGCTTGCTGG, targets mouse short heterodimer partner-1 RNA (antisense eA*eG*eT*e[5mC]*eA*dT*d[5mC]*dA*dA*dG*dG*dG*d[5mC]*dT*dT*eG*e[5mC]*eT*eG*eG) | at least 50%
148282 (antisense eT*eG*eA*eT*eG*dT*d[5mC]*dA*dA*d[5mC]*dG*dT*d[5mC]*dT*d[5mC]*e[5mC]*e[5mC]*eA*eT*eG) [compound 148282] | 22%
ISIS 148262: 2′-MOE gapmer, phosphorothioate, TGACTGGCCGGAGCTCATGG, targets mouse short heterodimer partner-1 RNA (antisense eT*eG*eA*e[5mC]*eT*dG*dG*d[5mC]*d[5mC]*dG*dG*dA*dG*d[5mC]*dT*e[5mC]*eA*eT*eG*eG) | at least 50%
ISIS 148269: 2′-MOE gapmer, phosphorothioate, TAGGACATCCAAGGCCTCCC, targets mouse short heterodimer partner-1 RNA (antisense eT*eA*eG*eG*eA*d[5mC]*dA*dT*d[5mC]*d[5mC]*dA*dA*dG*dG*d[5mC]*e[5mC]*eT*e[5mC]*e[5mC]*e[5mC]) | at least 50%
148266 (antisense eA*eG*eG*e[5mC]*eA*dG*dT*dG*dG*d[5mC]*dT*dG*dT*dG*dA*eG*eA*eT*eG*e[5mC]) [compound 148266] | 44%
148274 (antisense eG*eG*e[5mC]*eA*e[5mC]*d[5mC]*d[5mC]*dT*dG*dG*dG*dT*dA*d[5mC]*d[5mC]*eG*e[5mC]*eT*eG*e[5mC]) [compound 148274] | 22%
148275 (antisense eT*eG*eT*eG*eG*d[5mC]*d[5mC]*dG*dG*dT*d[5mC]*dT*dG*dA*dT*eG*eG*e[5mC]*eT*eG) [compound 148275] | 28%
